The text below walks through data of ChEMBL document CHEMBL1139762, “Novel substituted tetrahydrotriazaacenaphthylene derivatives as potent CRF1 receptor antagonists” (Bioorg Med Chem Lett, 2007).

Series [1] addresses T1, Corticotropin-releasing factor receptor 1 (Homo sapiens, UniProt P34998).
T1 sequence (P34998 whole entry): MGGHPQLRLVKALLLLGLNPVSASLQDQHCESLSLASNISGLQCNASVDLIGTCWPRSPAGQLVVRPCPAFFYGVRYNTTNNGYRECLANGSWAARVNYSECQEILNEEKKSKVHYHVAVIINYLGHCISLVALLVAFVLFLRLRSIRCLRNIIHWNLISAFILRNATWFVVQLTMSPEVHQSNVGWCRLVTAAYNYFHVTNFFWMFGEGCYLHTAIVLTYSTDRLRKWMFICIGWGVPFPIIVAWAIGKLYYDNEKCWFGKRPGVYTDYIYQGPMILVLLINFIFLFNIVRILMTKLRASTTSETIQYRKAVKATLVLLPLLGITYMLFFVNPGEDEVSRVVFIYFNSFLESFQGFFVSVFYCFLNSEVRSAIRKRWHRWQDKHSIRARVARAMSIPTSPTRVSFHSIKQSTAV
The series can be described thus: Displacement of [125I]CRF from human recombinant CRF1 receptor expressed in CHO cell membrane. The series is classed as cell membranes.

A short description of series [2]: Plasma clearance in Sprague-Dawley rat at 1 mg/kg, po and 0.4 mg/kg, iv. Format: ADME, organism-based.
Series [3] in a line: Oral bioavailability in Sprague-Dawley rat at 1 mg/kg. Format: ADME, organism-based. The conditions noted are these: in vivo.
Series [4] can be described thus: Volume of distribution at steady state in Sprague-Dawley rat at 1 mg/kg, po and 0.4 mg/kg, iv. Format: ADME, organism-based. The conditions noted are these: in vivo, read-out: Vdss.
Series [5] is described as follows: Half life in Sprague-Dawley rat at 1 mg/kg, po and 0.4 mg/kg, iv. The series is classed as ADME, organism-based. To be noted: in vivo.
The nature of series [6]: AUC in Sprague-Dawley rat at 1 mg/kg, po and 0.4 mg/kg, iv. Format: ADME, organism-based. To be noted: plasma.

Take `CCCC(CCC)n1cc2c3c(nc(C)nc31)N(c1ccc(C(F)(F)F)cc1C(F)(F)F)CC2`: the concentration for half-maximal inhibition (IC50) in series [1] was 15.8 nM.

For the compound `CCC(CC)n1cc2c3c(nc(C)nc31)N(c1ccc(C(F)(F)F)cc1C(F)(F)F)CC2`, the IC50 in series [1] was 25.1 nM.

In the case of `CCCC(CCC)N1CCC2CN(c3ccc(Cl)cc3Cl)c3nc(C)nc1c32` (stereo not drawn), the IC50 in series [1] is 31.6 nM.

In the case of `CCCC(CCC)n1cc2c3c(nc(C)nc31)N(c1ccc(C#N)cc1C)CC2`, the IC50 in series [1] is 50.1 nM.

Take `CCC(CC)n1cc2c3c(nc(C)cc31)N(c1ccc(OC)cc1C)CC2`: the 50% inhibitory concentration (IC50) in series [1] was 12.6 nM.

On to `CCC(COC)n1cc2c3c(nc(C)cc31)N(c1ccc(OC)cc1C)CC2` (stereo not drawn), for which the IC50 in series [1] was 158 nM.

With `CCCC(CCC)n1cc2c3c(nc(C)cc31)N(c1ccc(OC)c(F)c1)CC2`, the IC50 in series [1] was 39.8 nM. In series [2], this compound had a clearance of 47 mL/min/kg. This compound also gave a bioavailability in series [3] of 37%. The Vd in series [4] came out at 24 L/kg. Moreover, the half-life in series [5] is 8.6 h. Also, the AUC in series [6] is 131 ng·h/mL.

Turning to `CCC(CC)n1cc2c3c(nc(C)cc31)N(c1ccc(OC(F)(F)F)cc1C)CC2`, the half-inhibitory concentration (IC50) in series [1] was 79.4 nM.

`CCC(CC)n1cc2c3c(nc(C)cc31)N(c1ccc(C(F)(F)F)cc1C(F)(F)F)CC2`: the IC50 in series [1] was 126 nM. In series [2], this compound yielded a clearance of 21 mL/min/kg. The same compound came in with a bioavailability in series [3] of 28%. The Vd in series [4] was 6.8 L/kg. The compound also showed a half-life in series [5] of 7.6 h. In series [6], this compound returned an AUC of 222 ng·h/mL.

Take `CCCC(CCC)n1cc2c3c(nc(C)cc31)N(c1ccc(C(F)(F)F)cc1C(F)(F)F)CC2`: the IC50 in series [1] is 100 nM. Besides, the clearance in series [2] came to 8 mL/min/kg. In series [3], the bioavailability amounted to 71%. Moreover, the Vd in series [4] turned out to be 2.5 L/kg. In addition, in series [5], the half-life was 5.3 h. Further, the exposure (AUC) in series [6] was found to be 1480 ng·h/mL.

With `CCC(CC)n1cc2c3c(nc(C)cc31)N(c1ccc(OC)c(F)c1)CC2`, the IC50 in series [1] is 50.1 nM.

Regarding `CCC(CC)n1cc2c3c(nc(C)cc31)N(c1ccc(OC)cc1)CC2`, the IC50 in series [1] is 63.1 nM.

Turning to `CCCC(CCC)n1cc2c3c(nc(C)cc31)N(c1ccc(C#N)cc1C)CC2`, the IC50 in series [1] is 3.98 nM. The clearance in series [2] worked out at 54 mL/min/kg. The bioavailability in series [3] is under 5%. Also, the Vd in series [4] turned out to be 17 L/kg. Moreover, in series [5], the half-life was 6.7 h. Moreover, in series [6], the AUC was under 15 ng·h/mL.

For `CCC(COC)n1cc2c3c(nc(C)cc31)N(c1ccc(C#N)cc1C)CC2` (stereo not drawn), the half-inhibitory concentration (IC50) in series [1] is 39.8 nM.

With `CCC(CC)n1cc2c3c(nc(C)cc31)N(c1ccc(C#N)cc1C)CC2`, the half-maximal inhibitory concentration (IC50) in series [1] was 12.6 nM.

As for `CCCC(CCC)n1cc2c3c(nc(C)cc31)N(c1ccc(OC)cc1C)CC2`, the 50% inhibitory concentration (IC50) in series [1] is 126 nM.

As to `COCC(COC)Nc1nc(C)nc2c(-c3ccc(Cl)cc3Cl)c(C)nn12`, in series [1], the IC50 was 39.8 nM.

For the compound `CCCCN(CC)c1nc(C)nc2c1c(C)cn2-c1c(C)cc(C)cc1C` [CP-154526], the IC50 in series [1] is 15.8 nM.
